Results on nine compounds are retold here after publication PMC8906351 (Pharmaceutical research, 2021).

The subject of one data set is MCT8. The conditions noted are these: concentration of 1 mM; cited from earlier work.
Data set [1] has as its system [^14C]phenytoin efflux across the rat BBB. Briefly: BEI inhibition study: pre-administration of compounds into rat Par2 region. The conditions noted are these: for effect of pre-administration on [14C]phenytoin BEI (in words): 20 mM desipramine, probenecid, MK-571, 5 mM quinidine, 4 mM verapamil, 500 μM prazosin, 10 mM methotrexate, DHEAS, PSC833. The data set is classed as in vivo.

Data set [2] can be described thus: Brain efflux index. The conditions noted are these: rat.
Another data set concerns P-glycoprotein (P-gp). Kind of data set: In situ brain perfusion in wild-type and mdr1a/1b knockout mice. The class given is in vivo, mouse. The conditions noted are these: [14C]phenytoin 2.73 μM; perfusion 2.5 mL/min for 2 min.
The conditions of data set [3]: adult rats; brain uptake index; cited from earlier work.
Another data set can be described thus: in vivo. Conditions: rat, not told.
Data set [4] is described as follows: Brain efflux index. The data set is classed as in vivo, mouse.
For data set [5] the following is noted: rat, 0.01 uCi.

What is called half-life is how long it takes for the measured level to halve. A lower half-life goes with rapid decline.

Where a name gives a salt, the structure may show the parent alone.

As for `CNCCCN1c2ccccc2CCc2ccccc21` [Desipramine, desipramine hydrochloride], the “inhibition of MCT8-mediated transport of the other substrates” value in the data set with MCT8 is reported as “more than 50%”. For the same compound, the “BEI (%)” value in data set [1] (0.5 h, 20000 µM) is 28.4 ± 20.7%. For the same compound, the “effect of pre-administration on [14C]phenytoin BEI (in words)” value (“effect of pre-administration” for short) in data set [1] (rat, 30 min) is given as “significantly decreased”.

For `O=C1NC(=O)C(c2ccccc2)(c2ccccc2)N1` [phenytoin, 5,5-diphenylhydantoin], the “elimination clearance relative to influx clearance” value in “Brain efflux index [2]” (177 vs 64 μL/(min·g brain) of Cornford et al.) worked out at 2.8 fold. The “elimination clearance across the BBB” value in “Brain efflux index [2]” (from kel, bbb and Vd, brain) is 177 ±20 μL/(mim•g brain). In the data set on P-glycoprotein (P-gp), the “Kin value, wild-type vs mdr1a/1b knockout mice” value is given as “not significantly different”. Further, the blood-to-brain influx clearance in data set [3] is on record as 64 μL/(min·g brain). The half-life worked out at 17 min in “in vivo” and 31 min in “Brain efflux index [4]” (mouse, brain (ipsilateral hemisphere), 0.019 μCi/0.3 μL (= 1.15 mM)). Further, in the data set “Brain efflux index [4]” (mice, [14C]phenytoin 1.15 mM, 0.3 μL injected into S2 region), the “brain elimination rate constant kel, BBB” value was 0.0223 ± 0.0075 min⁻¹. Also, in the data set “Brain efflux index [4]” (mice, [14C]phenytoin injected into S2 region), the “half-life t1/2 in the brain” value is on record as 31.1 ± 10.8 min. Besides, the “100 − BEI value of [14C]phenytoin compared to control” value in data set [1] (rat, 30 min, pre-administration of 1 mM unlabeled phenytoin) is “significantly increased”. In addition, in data set [5] (in vivo), the “elimination rate constant kel, bbb” value is 0.0413 ± 46 min⁻¹. In addition, the “half-life t1/2 of brain efflux” value in data set [5] (not told) turned out to be 16.8 ± 1.9 min.

On to `CCCN(CCC)S(=O)(=O)c1ccc(C(=O)O)cc1` [Probenecid, probenecid], for which the “BEI (%)” value in data set [1] (0.5 h, 20000 µM) is 56.5 ± 24.9%. Besides, the “effect of pre-administration” value in data set [1] (rat, 30 min) is “not significantly altered”.

Take `CN(Cc1cnc2nc(N)nc(N)c2n1)c1ccc(C(=O)N[C@@H](CCC(=O)O)C(=O)O)cc1` [Methotrexate, methotrexate]: the “BEI (%)” value in data set [1] (0.5 h, 10000 µM) came out at 67.3 ± 16.7%. The “effect of pre-administration” value in data set [1] (rat, 30 min) is “not significantly altered”.

For the compound `CN(C)C(=O)CCSC(SCCC(=O)O)c1cccc(/C=C/c2ccc3ccc(Cl)cc3n2)c1` (centres unmarked) [MK-571], the “effect of pre-administration” value in data set [1] (rat, 30 min) was “not significantly altered”.

As for `O=C1OC(c2ccc(O)c(S(=O)(=O)O)c2)(c2ccc(O)c(S(=O)(=O)O)c2)c2c(Br)c(Br)c(Br)c(Br)c21` [BSP, Bromosulfophthalein], in the data set with MCT8, the “inhibition of MCT8-mediated transport of the other substrates” value is recorded as “more than 50%”. The “decrease of [14C]phenytoin BEI” value in data set [1] (rat, 30 min, pre-administration of 20 mM) is 82%.

With `COc1cc2nc(N3CCN(C(=O)c4ccco4)CC3)nc(N)c2cc1OC` [Prazosin, prazosin], the “effect of pre-administration” value in data set [1] (rat, 30 min) is on record as “not significantly altered”. The “BEI (%)” value in data set [1] (rat, 30 min, compound 0.5 mM pre-administered, control 64.1 ± 12.9) was 59.4 ± 8.5%.

Consider `C=C[C@H]1C[N@@]2CC[C@H]1C[C@@H]2[C@@H](O)c1ccnc2ccc(OC)cc12` [Quinidine, quinidine], for which, in data set [1] (0.5 h, 5000 µM), the “BEI (%)” value was determined as 50.5 ± 13.1%. Besides, the “effect of pre-administration” value in data set [1] (rat, 30 min) is reported as “not significantly altered”.

For the compound `C/C=C/C[C@@H](C)C(=O)[C@H]1C(=O)N[C@@H](C(C)C)C(=O)N(C)CC(=O)N(C)[C@@H](CC(C)C)C(=O)N[C@@H](C(C)C)C(=O)N(C)[C@@H](CC(C)C)C(=O)N[C@@H](C)C(=O)N[C@H](C)C(=O)N(C)[C@@H](CC(C)C)C(=O)N(C)[C@@H](CC(C)C)C(=O)N(C)[C@@H](C(C)C)C(=O)N1C` [PSC833], in data set [1] (rat, 30 min), the “effect of pre-administration” value is on record as “did not alter”.
